Experimental data: ChEMBL document CHEMBL1649565, “Besifloxacin, a novel fluoroquinolone, has broad-spectrum in vitro activity against aerobic and anaerobic bacteria” (Antimicrob Agents Chemother, 2009)
Converted amounts (≈) assume the structure as drawn. The source made the active and inactive calls. No cut-off for these calls is given here.

How the values were obtained:
[1] = tested on: Clostridium perfringens
[2] = tested on: Fusobacterium sp.; experiment: Antibacterial activity against Fusobacterium sp. by CLSI M11-A7 method; assay type: functional
[3] = tested on: Bacteroides fragilis; experiment: Antibacterial activity against Bacteroides fragilis by CLSI M11-A7 method; assay type: functional
[4] = tested on: Peptostreptococcus sp.; experiment: Antibacterial activity against Peptostreptococcus sp. assessed as percent susceptible isolates by CLSI M11-A7 method; assay type: functional
[5] = tested on: Peptostreptococcus sp.; experiment: Antibacterial activity against Peptostreptococcus sp. by CLSI M11-A7 method; assay type: functional
[6] = tested on: Bacteroides fragilis; experiment: Antibacterial activity against Bacteroides fragilis assessed as percent susceptible isolates by CLSI M11-A7 method; assay type: functional
[7] = tested on: Clostridium perfringens; experiment: Antibacterial activity against Clostridium perfringens by CLSI M11-A7 method; assay type: functional
[8] = tested on: Prevotella sp.; experiment: Antibacterial activity against Prevotella sp. assessed as percent susceptible isolates by CLSI M11-A7 method; assay type: functional
[9] = tested on: Cutibacterium acnes; experiment: Antibacterial activity against Propionibacterium acnes by CLSI M11-A7 method; assay type: functional
[10] = tested on: Prevotella sp.; experiment: Antibacterial activity against Prevotella sp. by CLSI M11-A7 method; assay type: functional
[11] = tested on: Fusobacterium sp.; experiment: Antibacterial activity against Fusobacterium sp. assessed as percent susceptible isolates by CLSI M11-A7 method; assay type: functional
[12] = tested on: Klebsiella oxytoca; experiment: Antibacterial activity against Klebsiella oxytoca assessed as percent susceptible isolates by CLSI M7-A7 method; assay type: functional
[13] = tested on: Citrobacter koseri; experiment: Antibacterial activity against Citrobacter koseri assessed as percent susceptible isolates by CLSI M7-A7 method; assay type: functional
[14] = Antibacterial activity against Lancefield Streptococcus sp. 'group C' assessed as percent susceptible isolates by CLSI M100-S18 method; assay type: functional
[15] = tested on: Streptococcus sp.; experiment: Antibacterial activity against Lancefield Streptococcus sp. group F assessed as percent susceptible isolates by CLSI M100-S18 method; assay type: functional
[16] = Antibacterial activity against Lancefield Streptococcus sp. 'group G' assessed as percent susceptible isolates by CLSI M100-S18 method; assay type: functional

With `N[C@@H]1CCCCN(c2c(F)cc3c(=O)c(C(=O)O)cn(C4CC4)c3c2Cl)C1` [BESIFLOXACIN] the Activity [1] was “inactive”, the MIC50 [2] was 0.25 µg/mL (≈ 0.635 µM) and the MIC90 [2] was 1 µg/mL (≈ 2.54 µM). For the same molecule, the MIC50 [3] was 0.5 µg/mL (≈ 1.27 µM), the MIC90 [3] was 1 µg/mL (≈ 2.54 µM) and the Activity [4] was “inactive”. For the same molecule, the MIC50 [5] was 0.25 µg/mL (≈ 0.635 µM), the MIC90 [5] was 0.5 µg/mL (≈ 1.27 µM) and the Activity [6] was “inactive”. The MIC50 [7] was 0.25 µg/mL (≈ 0.635 µM), the MIC90 [7] was 0.25 µg/mL (≈ 0.635 µM) and the Activity [8] was “inactive”. It also gave an MIC50 [9] of 0.25 µg/mL (≈ 0.635 µM), an MIC90 [9] of 0.25 µg/mL (≈ 0.635 µM) and an MIC50 [10] of 1 µg/mL (≈ 2.54 µM). The MIC90 [10] was 4 µg/mL (≈ 10.2 µM) and the Activity [11] was “inactive”.

`C[C@H]1COc2c(N3CCN(C)CC3)c(F)cc3c(=O)c(C(=O)O)cn1c23.C[C@H]1COc2c(N3CCN(C)CC3)c(F)cc3c(=O)c(C(=O)O)cn1c23.O` [LEVOFLOXACIN] gave an Activity [12] of 90% and an Activity [13] of 99%.

`NC[C@H]1O[C@H](O[C@H]2[C@H](O)[C@@H](O[C@H]3O[C@H](CO)[C@@H](O)[C@H](N)[C@H]3O)[C@H](N)C[C@@H]2N)[C@H](N)C[C@@H]1O` [TOBRAMYCIN] showed an Activity [14] of 74%, an Activity [15] of 74% and an Activity [16] of 74%.
